From ChEMBL document CHEMBL2406999, “Vialinin A is a ubiquitin-specific peptidase inhibitor” (Bioorg Med Chem Lett, 2013)
Positions count from the first letter of the chain named. Active and inactive are the calls of the source. The rule behind the calls is not given here.

Columns and labels:
[1] = molecular target: Calpain1/2 (Homo sapiens) (UniProt P17655+P07384); test: Inhibition of calpain1/2 (unknown origin) using Suc-LLVY-AMC as substrate at 6.3 uM after 20 mins by fluorometric analysis; format: protein assay
[2] = molecular target: T1, Ubiquitin carboxyl-terminal hydrolase isozyme L1 (Homo sapiens, UniProt P09936); test: Inhibition of human UCH-L1 using Ub-AMC as substrate after 60 mins by fluorometric analysis
T1 sequence (P09936 whole entry): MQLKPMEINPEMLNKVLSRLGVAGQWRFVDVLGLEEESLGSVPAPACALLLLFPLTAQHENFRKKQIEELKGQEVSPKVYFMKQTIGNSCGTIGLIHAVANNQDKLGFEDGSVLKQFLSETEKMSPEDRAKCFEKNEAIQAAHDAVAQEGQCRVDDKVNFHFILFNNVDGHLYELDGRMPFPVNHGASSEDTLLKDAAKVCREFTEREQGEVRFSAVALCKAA

[3] = tested on: T2, Ubiquitin carboxyl-terminal hydrolase 5 (Homo sapiens), P45974 [C335A,H818A]; test: Competitive binding affinity to human USP5 C335A/H818A mutant by SDS-PAGE analysis in presence of biotin-DMT
T2 sequence (whole entry): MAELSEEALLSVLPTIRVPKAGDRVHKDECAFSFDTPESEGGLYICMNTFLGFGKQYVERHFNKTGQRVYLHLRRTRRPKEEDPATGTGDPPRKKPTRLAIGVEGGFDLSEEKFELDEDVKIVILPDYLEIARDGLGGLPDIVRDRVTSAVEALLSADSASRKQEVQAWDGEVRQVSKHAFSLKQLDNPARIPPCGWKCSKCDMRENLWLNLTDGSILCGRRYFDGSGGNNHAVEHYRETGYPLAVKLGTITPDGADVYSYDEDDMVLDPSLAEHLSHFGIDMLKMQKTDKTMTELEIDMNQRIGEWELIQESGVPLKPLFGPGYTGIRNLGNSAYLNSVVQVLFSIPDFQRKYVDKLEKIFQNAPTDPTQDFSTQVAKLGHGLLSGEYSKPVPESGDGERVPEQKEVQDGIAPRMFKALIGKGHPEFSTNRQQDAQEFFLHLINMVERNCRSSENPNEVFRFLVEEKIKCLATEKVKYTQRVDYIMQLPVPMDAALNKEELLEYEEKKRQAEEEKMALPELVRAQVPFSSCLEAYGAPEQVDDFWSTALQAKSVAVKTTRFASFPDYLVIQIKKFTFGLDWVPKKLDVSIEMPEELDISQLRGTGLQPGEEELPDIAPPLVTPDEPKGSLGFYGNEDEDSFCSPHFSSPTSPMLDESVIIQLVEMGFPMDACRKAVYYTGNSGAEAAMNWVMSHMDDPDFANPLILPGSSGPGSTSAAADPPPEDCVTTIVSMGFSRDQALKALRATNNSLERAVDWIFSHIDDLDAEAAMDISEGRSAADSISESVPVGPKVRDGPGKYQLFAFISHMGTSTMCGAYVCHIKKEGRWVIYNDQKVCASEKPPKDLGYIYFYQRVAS

[4] = tested on: T3, Ubiquitin carboxyl-terminal hydrolase 5 (Homo sapiens), P45974 [H818A]; test: Competitive binding affinity to human USP5 H818A mutant by SDS-PAGE analysis in presence of biotin-DMT
T3 sequence (whole entry): T2 sequence (whole entry) with A335C

[5] = tested on: T4, Ubiquitin carboxyl-terminal hydrolase 5 (Homo sapiens), P45974 [C335A]; test: Competitive binding affinity to human USP5 C335A mutant by SDS-PAGE analysis in presence of biotin-DMT
T4 sequence (whole entry): T2 sequence (whole entry) with A818H

Calpain1/2 (Homo sapiens), sequence (P07384 whole entry, looked up): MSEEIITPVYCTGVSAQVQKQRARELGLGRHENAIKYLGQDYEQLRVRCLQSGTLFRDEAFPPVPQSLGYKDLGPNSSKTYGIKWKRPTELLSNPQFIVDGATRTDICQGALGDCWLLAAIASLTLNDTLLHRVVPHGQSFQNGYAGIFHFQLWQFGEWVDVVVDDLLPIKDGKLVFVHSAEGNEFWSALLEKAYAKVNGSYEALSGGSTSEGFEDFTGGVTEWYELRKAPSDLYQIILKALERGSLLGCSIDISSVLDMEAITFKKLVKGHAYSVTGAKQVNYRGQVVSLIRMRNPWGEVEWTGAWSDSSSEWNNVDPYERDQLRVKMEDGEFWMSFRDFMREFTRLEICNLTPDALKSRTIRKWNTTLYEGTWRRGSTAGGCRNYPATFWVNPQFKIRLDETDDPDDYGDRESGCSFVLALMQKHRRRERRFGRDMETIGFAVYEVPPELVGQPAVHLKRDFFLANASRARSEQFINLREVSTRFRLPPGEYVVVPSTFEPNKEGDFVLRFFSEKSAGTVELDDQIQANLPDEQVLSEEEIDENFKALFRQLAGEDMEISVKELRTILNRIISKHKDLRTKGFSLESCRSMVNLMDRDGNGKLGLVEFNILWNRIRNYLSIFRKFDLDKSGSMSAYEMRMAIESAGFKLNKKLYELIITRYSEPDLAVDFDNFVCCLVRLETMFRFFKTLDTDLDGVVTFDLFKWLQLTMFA
Calpain1/2 (Homo sapiens), sequence (P17655 whole entry, looked up): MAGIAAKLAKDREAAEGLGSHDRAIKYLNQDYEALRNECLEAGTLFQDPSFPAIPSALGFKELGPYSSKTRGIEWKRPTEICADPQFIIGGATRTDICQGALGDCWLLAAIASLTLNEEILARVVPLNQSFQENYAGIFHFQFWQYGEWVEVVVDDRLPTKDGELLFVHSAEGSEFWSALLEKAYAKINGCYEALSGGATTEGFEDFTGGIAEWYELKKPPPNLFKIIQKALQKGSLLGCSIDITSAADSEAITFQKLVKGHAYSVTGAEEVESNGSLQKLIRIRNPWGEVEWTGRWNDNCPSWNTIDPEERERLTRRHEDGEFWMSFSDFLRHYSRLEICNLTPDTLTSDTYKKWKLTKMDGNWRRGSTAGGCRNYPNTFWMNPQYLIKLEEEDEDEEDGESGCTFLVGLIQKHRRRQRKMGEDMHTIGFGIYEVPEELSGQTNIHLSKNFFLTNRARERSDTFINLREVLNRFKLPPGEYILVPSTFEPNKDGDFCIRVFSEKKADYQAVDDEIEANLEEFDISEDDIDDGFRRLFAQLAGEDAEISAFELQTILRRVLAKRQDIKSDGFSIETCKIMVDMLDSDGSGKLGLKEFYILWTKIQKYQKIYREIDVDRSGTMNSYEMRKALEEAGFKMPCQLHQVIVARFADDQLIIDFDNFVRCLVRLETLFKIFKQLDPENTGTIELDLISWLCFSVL

In the case of `O=C(Cc1ccccc1)Oc1c(OC(=O)Cc2ccccc2)c(-c2ccc(O)cc2)c(O)c(O)c1-c1ccc(O)cc1` [VIALININ A], the inhibition [1] is reported as “inactive”, the IC50 [2] is reported as 22.3 µM and the Activity [3] is reported as “inactive”. The Activity [4] was “inactive” and the Activity [5] was “inactive”.
